Experimental data reported in PMC11636681, “Pharmacokinetics and pharmacodynamics of antibacterial peptide NZX in Staphylococcus aureus mastitis mouse model” (Applied Microbiology and Biotechnology, 2024).
Positions of bridges follow the written chain, without caps; N, C: chain ends. Residues, ends and D or L forms follow the SMILES beside them.

Key:
[1] = tested on: S. aureus ATCC 25923; test: Cell membrane permeability, PI staining by flow cytometry; type: cell-based, Staphylococcus aureus
Procedure: (§1) Flow cytometry was used for the analysis of the effects of NZX on the penetration rate of the S. aureus cell membrane (Yang et al. [2019]). The S. aureus cells in mid-log phase were adjusted to 1 × 10^8 CFU/mL and the bacteria suspensions were treated with 1 × , 2 × and 4 × MIC of NZX for 2 h at 37 °C. In addition, the cell suspensions were incubated with 2 × MIC of NZX for 0 h, 0.5 h, 1 h and 2 h, respectively. After incubation, the cells were centrifuged at 4000 rpm at 4 °C for 5 min, washed twice with sterile PBS, and pellets were resuspended in 1 mL of PBS. Next, cells were stained with 50 µg/mL propidium iodide (PI) for 30 min in the dark at room temperature, and the proportion of cells with PI positive cells to the total cells were analyzed by flow-cytometry (BD, USA). Lincomycin and ceftiofur were used as positive controls and PBS as negative control. Three replicates for each treatment were conducted.

[2] = tested on: S. aureus E48; test: as above; type: cell-based, Staphylococcus aureus
Procedure: as §1

[3] = tested on: S. aureus ATCC 25923; test: Mouse mastitis model, bacterial counts in mammary tissues; type: in vivo; conditions: 24 h after treatment; for bacteria reduction in mammary tissues: vs PC group
Excerpt: (§2) The 7 to 8-weeks old ICR mice (80 females, 40 males) were housed in independent ventilated cages, and feed with autoclaved laboratory food and water. Female mice in heat were put into the cage of males (females:males, 2:1) overnight and checked for vaginal plugs at the following morning to induce pregnancy. ICR-lactating mice were used at 6 to 8 days after the birth of the offspring. The mouse mastitis model was established as previously described (Li et al. [2017]). Mice were randomly divided into nine groups: NC group (uninfected group), PC group (infected but without treatment), NZX groups (25, 50, 100, 200 and 400 μg/gland, respectively), lincomycin group (100 μg/gland), and ceftiofur group (100 μg/gland). Each experimental group has six independent experiments with three mice. Specially, the pups were removed 1 h before the intramammary injection of both L4 (on the left) and R4 (on the right) abdominal mammal glands. A 100 μL of S. aureus strains (1 × 10^6 CFU/mL) was administrated to mice in PC, NZX, lincomycin and ceftiofur groups, and the same volume of sterile physiological saline was administrated to mice in NC group. Glands of 3 h post-infection were injected with sterile physiological saline, NZX, lincomycin, or ceftiofur. The mice were euthanized after the treatment for 24 h, and their mammary glands were dissected, weighed, and homogenized. The animal experiments were performed according to the Animal Care and Use Committee of the Feed Research Institute, Chinese Academy of Agricultural Sciences (Permit Number: AEC-CAAS-20090609) in accordance with the Guidelines for Animal Experimentation.
(§3) After mouse sacrifice, one part of mammary tissue was taken for bacterial count, and the other part was used for the histopathological analysis. Specifically, tissues were aseptically collected immediately from the dead mice, weighted, homogenized with sterile physiological saline (1:1, W:V). Next, the homogenates were serially diluted (ten-fold dilutions) in physiological saline, plated on MHA plate, and then cultured overnight at 37 °C. The bacterial number on each plate was counted and the results were expressed as Log10 CFU per gram of mammary tissues. In addition, mammary tissues were fixed in 4% paraformaldehyde, then embedded in paraffin, cut into 5 μm sections, and later stained by hematoxylin–eosin (H&E). The stained sections were observed under a light microscope (× 200) for pathological morphology and scoring of mammary tissues (Schmidt et al. [1992]).

[4] = tested on: S. aureus E48; test: as above; type: in vivo; conditions: 3 h post-infection, 24 h after treatment, vs PC group
Excerpt: as §2, §3

[5] = tested on: S. aureus ATCC 25923; test: Mutant prevention concentration (MPC) on MHA plates; type: cell-based, Staphylococcus aureus; conditions: 1 × 10^10 CFU/mL, 37 °C, 72 h, each concentration three times
Procedure: (§4) Minimal Inhibitory Concentration (MIC), Minimal Bactericidal Concentration (MBC) and Mutant Prevention Concentration (MPC).
(§5) MPCs of NZX against the test S. aureus strain were determined as described by Plowgian et al., with some modification (Plowgian et al. [2019]). In brief, S. aureus cells were cultured to mid-log phase in Mueller–Hinton broth (MHB) medium. Then the suspensions were centrifuged (4000 rpm for 5 min) and the pellets were collected and diluted to a final concentration of 1 × 10^10 CFU/mL with MHB. […] All plates were incubated at 37 ^∘C for 72 h and the concentration corresponding to the plate with no bacterial growth was regarded as the provisional mutant prevention concentration (MPCpr). […] Lincomycin and ceftiofur were set as antibiotic controls, respectively. Each concentration was conducted three times.

[6] = tested on: S. aureus ATCC 43300; test: as above; type: cell-based, Staphylococcus aureus; conditions: 1 × 10^10 CFU/mL, 37 °C, 72 h, each concentration three times
Procedure: as §4, §5

[7] = tested on: S. aureus E48; test: as above; type: cell-based, Staphylococcus aureus; conditions: 1 × 10^10 CFU/mL, 37 °C, 72 h, each concentration three times
Procedure: as §4, §5

[8] = tested on: S. aureus ATCC 25923; test: Post antibiotic effect (PAE); type: cell-based, Staphylococcus aureus; conditions: 2 h exposure at 1 × to 8 × MIC, 1 × 10^8 CFU/mL, triplicate
Procedure: (§6) PAE was performed based on the method of Zhang et al. (Zhang et al. [2014]). S. aureus E48, S. aureus ATCC 25923 and S. aureus ATCC 43300 were cultured at 37 °C in MHB medium to the log-phase. Then, the diluted cells (1 × 10^8 CFU/mL) were exposed to NZX with final concentration of 1 × , 2 × , 4 × and 8 × MIC in the 48-well plates for 2 h at 37 °C. After incubation, NZX were removed by diluting 1:1000 with MHB medium. Viable counts were determined immediately after drug reconstruction and at 1–2 h interval for at least 10 h. PAE determination was calculated as PAE (h) = T-C, where T is the time (h) that required to increase by tenfold for the drug-treated viable count from the moment of drug reconstruction and C is the time (h) required to increase by tenfold for cell density without treatment. The experiments were conducted in triplication.

[9] = tested on: S. aureus E48; test: Post antibiotic effect (PAE); type: cell-based, Staphylococcus aureus; conditions: 2 h exposure at 1 × to 8 × MIC, 1 × 10^8 CFU/mL, triplicate
Procedure: as §6

[10] = 2 × MIC, range over 0, 0.5, 1 and 2 h
[11] = 2 h, range over 1 × MIC, 2 × MIC and 4 × MIC

SMILES	percentage of PI-positive cells [1, 10]	percentage of PI-positive cells [1, 11]	percentage of PI-positive cells [2, 10]	percentage of PI-positive cells [2, 11]	bacteria reduction in mammary tissues ([3]; 100 μg/gland intramammary) [Log10 CFU/g]	bacteria reduction in mammary tissues ([4]; 100 μg/gland intramammary) [Log10 CFU/g]	MPC [5] [µM]	MPC [6] [µM]	MPC [7] [µM]	mean PAE range [8] [h]	mean PAE range [9] [h]	bacterial loads in mammary tissues ([3]; 400 μg/gland intramammary)	bacteria reduction in mammary tissues ([3]; range over 25–400 μg/gland intramammary)	bacteria reduction in mammary tissues ([4]; range over 25 ~ 400 μg/gland intramammary)
CO/N=C(\C(=O)N[C@@H]1C(=O)N2C(C(=O)O)=C(CSC(=O)c3ccco3)CS[C@H]12)c1csc(N)n1 [Ceftiofur]	1.35–4.31%	1.55–3.42%	2.61–23.53%	8.56–21.1%	6.99	5.70	234.24	7.32	5.49	1.40 to 2.29	1.30 to 2.10	–	–	–
CCC[C@@H]1C[C@@H](C(=O)N[C@@H]([C@H]2O[C@H](SC)[C@H](O)[C@@H](O)[C@H]2O)[C@@H](C)O)N(C)C1 [Lincomycin]	–	0.45 to 0.63%	0.13–2.61%	0.08 to 0.09%	5.23	7.37	> 1111.04	–	> 1111.04	0.94 to 1.52	2.02 to 3.27	–	–	–
CC[C@H](C)[C@@H]1NC(=O)[C@H](CO)NC(=O)[C@H](CCCCN)NC(=O)[C@@H]2CSSC[C@@H](C(=O)N[C@@H](Cc3ccc(O)cc3)C(=O)O)NC(=O)[C@H](CCCCN)NC(=O)[C@@H]3CSSC[C@H](NC(=O)[C@H](CCC(N)=O)NC(=O)[C@H]([C@@H](C)CC)NC(=O)[C@H](CC(=O)O)NC(=O)[C@H](CC(=O)O)NC(=O)[C@H](CCC(=O)O)NC(=O)[C@H](CO)NC(=O)[C@H](Cc4c[nH]c5ccccc45)NC(=O)[C@@H]4CCCN4C(=O)CNC(=O)[C@H](CC(N)=O)NC(=O)[C@@H](NC(=O)CNC(=O)[C@H](Cc4ccccc4)NC(=O)CN)CSSC[C@H](NC(=O)[C@H](Cc4ccc(O)cc4)NC(=O)CNC(=O)CNC(=O)[C@H](CCCCN)NC(=O)[C@H](Cc4ccc(O)cc4)NC(=O)CNC(=O)[C@H](CCCCN)NC1=O)C(=O)N[C@@H](C)C(=O)N[C@@H](CCCNC(=N)N)C(=O)NCC(=O)NCC(=O)N[C@@H](Cc1ccccc1)C(=O)N[C@@H](C(C)C)C(=O)N3)C(=O)N[C@@H](Cc1c[nH]cn1)C(=O)N[C@@H](CC(N)=O)C(=O)N[C@@H](Cc1c[nH]cn1)C(=O)N2 [NZX] (H-GFGCNGPWSEDDIQCHNHCKSIKGYKGGYCARGGFVCKCY-OH; disulfide 4-30, 15-37, 19-39; N-terminus and C-terminus assumed)	1.93 to 54.06%	12.9–48.0%	2.61 to 72.93%	25.6–70.3%	4.73	8.34	3.68	1.18	1.47	1.67 to 3.34	1.14 to 3.60	eliminated	3.35–11.09 Log10 CFU/g	0.77–8.34 Log10 CFU/g
